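These data come from cells grown in 96-well plates and exposed to compound for 48 hours at five concentrations. TGI: total growth inhibition.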
Experiments:
Experiment in all cases: DTP human tumour cell line panel, 48 h
786-0 renal = test system: 786-0 renal
A549 NSCLC = test system: A549 NSCLC
ACHN renal = test system: ACHN renal
CAKI-1 renal = test system: CAKI-1 renal
CCRF-CEM leukemia = test system: CCRF-CEM leukemia
COLO 205 colon = test system: COLO 205 colon
DU-145 prostate = test system: DU-145 prostate
EKVX NSCLC = test system: EKVX NSCLC
HCC-2998 colon = test system: HCC-2998 colon
HCT-116 colon = test system: HCT-116 colon
HCT-15 colon = test system: HCT-15 colon
HL-60(TB) leukemia = test system: HL-60(TB) leukemia
HOP-62 NSCLC = test system: HOP-62 NSCLC
HOP-92 NSCLC = test system: HOP-92 NSCLC
HS 578T breast = test system: HS 578T breast
HT29 colon = test system: HT29 colon
IGROV1 ovarian = test system: IGROV1 ovarian
K-562 leukemia = test system: K-562 leukemia
KM12 colon = test system: KM12 colon
LOX IMVI melanoma = test system: LOX IMVI melanoma
M14 melanoma = test system: M14 melanoma
MCF7 breast = test system: MCF7 breast
MDA-MB-231 breast = test system: MDA-MB-231 breast
MDA-MB-435 = test system: MDA-MB-435
MDA-N = test system: MDA-N
MOLT-4 leukemia = test system: MOLT-4 leukemia
NCI-H226 lung = test system: NCI-H226 lung
NCI-H23 lung = test system: NCI-H23 lung
NCI-H460 lung = test system: NCI-H460 lung
NCI-H522 lung = test system: NCI-H522 lung
NCI/ADR-RES ovarian = test system: NCI/ADR-RES ovarian
OVCAR-3 ovarian = test system: OVCAR-3 ovarian
OVCAR-4 ovarian = test system: OVCAR-4 ovarian
OVCAR-5 ovarian = test system: OVCAR-5 ovarian
OVCAR-8 ovarian = test system: OVCAR-8 ovarian
PC-3 prostate = test system: PC-3 prostate
RPMI-8226 leukemia = test system: RPMI-8226 leukemia
RXF 393 renal = test system: RXF 393 renal
SF-268 CNS = test system: SF-268 CNS
SF-295 CNS = test system: SF-295 CNS
SF-539 CNS = test system: SF-539 CNS
SK-MEL-2 melanoma = test system: SK-MEL-2 melanoma
SK-MEL-28 melanoma = test system: SK-MEL-28 melanoma
SK-MEL-5 melanoma = test system: SK-MEL-5 melanoma
SK-OV-3 ovarian = test system: SK-OV-3 ovarian
SN12C renal = test system: SN12C renal
SNB-19 CNS = test system: SNB-19 CNS
SNB-75 CNS = test system: SNB-75 CNS
SR leukemia = test system: SR leukemia
SW-620 colon = test system: SW-620 colon
T-47D breast = test system: T-47D breast
TK-10 renal = test system: TK-10 renal
U251 CNS = test system: U251 CNS
UACC-257 melanoma = test system: UACC-257 melanoma
UACC-62 melanoma = test system: UACC-62 melanoma
UO-31 renal = test system: UO-31 renal

## CSc1ccc(C(=O)C(=O)c2ccc(SC)s2)s1
786-0 renal
  TGI: > 10 µM
A549 NSCLC
  TGI: > 10 µM
ACHN renal
  TGI: > 10 µM
CAKI-1 renal
  TGI: > 10 µM
CCRF-CEM leukemia
  TGI: > 10 µM
COLO 205 colon
  TGI: > 10 µM
DU-145 prostate
  TGI: > 10 µM
EKVX NSCLC
  TGI: > 10 µM
HCC-2998 colon
  TGI: > 10 µM
HCT-116 colon
  TGI: > 10 µM
HCT-15 colon
  TGI: > 10 µM
HL-60(TB) leukemia
  TGI: > 10 µM
HOP-62 NSCLC
  TGI: > 10 µM
HOP-92 NSCLC
  TGI: > 10 µM
HS 578T breast
  TGI: > 10 µM
HT29 colon
  TGI: > 10 µM
IGROV1 ovarian
  TGI: > 10 µM
K-562 leukemia
  TGI: > 10 µM
KM12 colon
  TGI: > 10 µM
LOX IMVI melanoma
  TGI: > 10 µM
M14 melanoma
  TGI: > 10 µM
MCF7 breast
  TGI: > 10 µM
MDA-MB-231 breast
  TGI: > 10 µM
MDA-MB-435
  TGI: > 10 µM
MDA-N
  TGI: > 10 µM
MOLT-4 leukemia
  TGI: 7.78 µM
NCI-H226 lung
  TGI: > 10 µM
NCI-H23 lung
  TGI: > 10 µM
NCI-H460 lung
  TGI: > 10 µM
NCI-H522 lung
  TGI: > 10 µM
NCI/ADR-RES ovarian
  TGI: > 10 µM
OVCAR-3 ovarian
  TGI: > 10 µM
OVCAR-4 ovarian
  TGI: > 10 µM
OVCAR-5 ovarian
  TGI: > 10 µM
OVCAR-8 ovarian
  TGI: > 10 µM
PC-3 prostate
  TGI: > 10 µM
RPMI-8226 leukemia
  TGI: > 10 µM
RXF 393 renal
  TGI: > 10 µM
SF-268 CNS
  TGI: > 10 µM
SF-295 CNS
  TGI: > 10 µM
SF-539 CNS
  TGI: > 10 µM
SK-MEL-2 melanoma
  TGI: > 10 µM
SK-MEL-28 melanoma
  TGI: > 10 µM
SK-MEL-5 melanoma
  TGI: > 10 µM
SK-OV-3 ovarian
  TGI: > 10 µM
SN12C renal
  TGI: > 10 µM
SNB-19 CNS
  TGI: > 10 µM
SNB-75 CNS
  TGI: > 10 µM
SR leukemia
  TGI: > 10 µM
SW-620 colon
  TGI: > 10 µM
T-47D breast
  TGI: > 10 µM
TK-10 renal
  TGI: > 10 µM
U251 CNS
  TGI: > 10 µM
UACC-257 melanoma
  TGI: > 10 µM
UACC-62 melanoma
  TGI: > 10 µM
UO-31 renal
  TGI: > 10 µM

From PubChem BioAssay (NCI)
